{"source": "patent US20190119200A1", "about": "“TERTIARY AMIDES AND METHOD OF USE” (AbbVie Inc., priority 2016, published 2019)", "key": {"[1]": {"system": "UUO mice (kidney fibrosis)", "assay": "Mouse unilateral ureteral obstruction (UUO) kidney fibrosis model", "type": "in vivo", "details": "male CD-1 mice, 30 mg/kg po twice daily D-1 to D6, compared to vehicle treated UUO group", "description": "All animal handling and experimental protocols were approved by AbbVie's Institutional Animal Care and Use Committee (IACUC) and were conducted in accordance with the ethical principles for pain-related animal research of the American Pain Society. Male CD-1 mice (28-30 g, Charles River) were group housed 10 per cage, housed in a temperature controlled room with a 12/12-hour day/night cycle, with food (2018 Tekland Global 18% protein rodent diet, Harlan®) and water available ad libitum. Mice underwent either complete unilateral ureter obstruction (UUO) or sham surgery to the left kidney. Briefly, animals were anesthetized with isoflurane, and the left ureter was visualized via a flank incision. Using 6-0 silk sutures, the ureter was tied off at two points near the renal pelvis and then completely cut between ligations (ligation step omitted for sham operated animals). The abdominal muscle was sutured and the skin closed using standard wound clips. Test compound or vehicle was delivered twice daily (30 mg/kg, po) via oral gavage, starting on the day before surgery (D-1) and continuing through day 6 after surgery (D6), at which time animals were sacrificed and kidney tissues collected. […] Statistical significance was determined by using a one-way analysis of variance (ANOVA) followed by a Bonferroni post-hoc test and was conducted using GraphPad prism."}, "LPAR1 [2]": {"target": "T1, LPAR1 (Homo sapiens, UniProt Q92633)", "T1 construct": "host or cells: U2OS", "T1 sequence (Q92633 whole entry)": "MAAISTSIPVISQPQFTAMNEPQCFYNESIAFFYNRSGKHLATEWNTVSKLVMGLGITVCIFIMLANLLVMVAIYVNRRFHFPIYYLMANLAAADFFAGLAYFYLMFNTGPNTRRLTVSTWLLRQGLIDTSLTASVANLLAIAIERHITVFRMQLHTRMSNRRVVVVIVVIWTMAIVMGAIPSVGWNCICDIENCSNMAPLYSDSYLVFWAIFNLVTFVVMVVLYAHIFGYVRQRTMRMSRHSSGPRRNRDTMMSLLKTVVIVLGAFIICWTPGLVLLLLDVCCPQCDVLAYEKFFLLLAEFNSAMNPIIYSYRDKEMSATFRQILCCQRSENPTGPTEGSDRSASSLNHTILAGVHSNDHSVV", "assay": "IP-One HTRF Assay", "type": "cell-based", "details": "U2OS cells stably expressing LPAR1, LPA stimulation, IP-One Tb HTRF kit; for Emax: read-out: Maximum Inhibition", "how_it_was_run": "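U2OS cells stably expressing LPAR1 were preincubated with compound (11-point 3-fold series from 2 mM DMSO stock) for 20 min at 37 °C, then stimulated with LPA for 2 h at 37 °C. IP1 accumulation was read by IP-One HTRF (665/615 nm ratio). IC50 came from four-parameter logistic Hill fits.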"}, "LPAR1 [3]": {"target": "T1, LPAR1", "assay": "LPAR1 FLIPR Assay", "type": "cell-based", "details": "U2OS cells stably expressing LPAR1, LPA (EC80), Calcium 6 FLIPR dye; for Emax: read-out: Maximum Inhibition", "how_it_was_run": "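U2OS cells stably expressing LPAR1 were loaded with Calcium 6 dye for 2 h at 37° C, preincubated 3 min with compound (11-point 3-fold series), then stimulated with LPA at EC80. Fluorescence at 515-575 nm was recorded by FLIPR; IC50 came from four-parameter logistic fits of ratio data.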"}}, "note": "pIC50: −log10 of the molar value."}
{"smiles": "COc1cc(OC)cc(C(=O)N(CCCCC(=O)O)CCCc2ccccc2)c1", "note": "[Example 7, 5-[(3,5-dimethoxybenzoyl)(3-phenylpropyl)amino]pentanoic Acid]", "values": [{"measurement": "reduction in Col1a1 expression", "setting": "[1]", "result": "−46", "unit": "%"}, {"measurement": "reduction in tubulointerstitial fibrosis as measured by PSR", "setting": "[1]", "result": "−53", "unit": "%"}, {"measurement": "pIC50", "setting": "LPAR1 [2]", "result": 5.76}, {"measurement": "Emax", "setting": "LPAR1 [2]", "result": 75, "unit": "%"}, {"measurement": "pIC50", "setting": "LPAR1 [3]", "result": 7.49}, {"measurement": "Emax", "setting": "LPAR1 [3]", "result": 82, "unit": "%"}]}
{"smiles": "COc1cc(C(=O)N(CCCCC(=O)O)CCCc2ccccc2F)cc(OC)c1C", "note": "[Example 32, 5-{(3,5-dimethoxy-4-methylbenzoyl)[3-(2-fluorophenyl)propyl]amino}pentanoic Acid]", "values": [{"measurement": "pIC50", "setting": "LPAR1 [2]", "result": 6.49}, {"measurement": "Emax", "setting": "LPAR1 [2]", "result": 88, "unit": "%"}, {"measurement": "pIC50", "setting": "LPAR1 [3]", "result": 7.74}, {"measurement": "Emax", "setting": "LPAR1 [3]", "result": 98, "unit": "%"}]}
{"smiles": "COc1cc(C(=O)N(CCCc2ccccc2)CCCC(C)(O)C(=O)O)cc(OC)c1C", "note": "(stereo not shown) [Example 155, 5-[(3,5-dimethoxy-4-methylbenzoyl)(3-phenylpropyl)amino]-2-hydroxy-2-methylpentanoic Acid]", "values": [{"measurement": "pIC50", "setting": "LPAR1 [2]", "result": 6.18}, {"measurement": "Emax", "setting": "LPAR1 [2]", "result": 83, "unit": "%"}, {"measurement": "pIC50", "setting": "LPAR1 [3]", "result": 7.57}, {"measurement": "Emax", "setting": "LPAR1 [3]", "result": 90, "unit": "%"}]}
{"smiles": "COc1cc(C(=O)N(CCCCC(=O)O)CCCc2ccc(F)cc2)cc(OC)c1C", "note": "[Example 34, 5-{(3,5-dimethoxy-4-methylbenzoyl)[3-(4-fluorophenyl)propyl]amino}pentanoic Acid]", "values": [{"measurement": "pIC50", "setting": "LPAR1 [2]", "result": 6.06}, {"measurement": "Emax", "setting": "LPAR1 [2]", "result": 70, "unit": "%"}, {"measurement": "pIC50", "setting": "LPAR1 [3]", "result": 7.62}, {"measurement": "Emax", "setting": "LPAR1 [3]", "result": 96, "unit": "%"}]}
{"smiles": "COc1cc(OC)cc(C(=O)N(CCCCC(=O)O)CCCc2cccc(Cl)c2)c1", "note": "[Example 91, 5-{[3-(3-chlorophenyl)propyl](3,5-dimethoxybenzoyl)amino}pentanoic Acid]", "values": [{"measurement": "pIC50", "setting": "LPAR1 [2]", "result": 6.55}, {"measurement": "Emax", "setting": "LPAR1 [2]", "result": 70, "unit": "%"}, {"measurement": "pIC50", "setting": "LPAR1 [3]", "result": 7.60}, {"measurement": "Emax", "setting": "LPAR1 [3]", "result": 89, "unit": "%"}]}
{"smiles": "COc1cc(C(=O)N(CCCc2ccccc2)CCC[C@@H](C)C(=O)O)cc(OC)c1C", "note": "(single isomer, unassigned) [Example 77]", "values": [{"measurement": "pIC50", "setting": "LPAR1 [2]", "result": 7.11}, {"measurement": "Emax", "setting": "LPAR1 [2]", "result": 84, "unit": "%"}, {"measurement": "pIC50", "setting": "LPAR1 [3]", "result": 7.70}, {"measurement": "Emax", "setting": "LPAR1 [3]", "result": 100, "unit": "%"}]}
{"smiles": "COc1ccc(C2(C(=O)N(CCCc3ccccc3)CCSCC(=O)O)CC2)cc1", "note": "[Example 115, [(2-{[1-(4-methoxyphenyl)cyclopropane-1-carbonyl](3-phenylpropyl)amino}ethyl)sulfanyl]acetic Acid]", "values": [{"measurement": "pIC50", "setting": "LPAR1 [2]", "result": 5.54}, {"measurement": "Emax", "setting": "LPAR1 [2]", "result": 71, "unit": "%"}, {"measurement": "pIC50", "setting": "LPAR1 [3]", "result": 7.52}, {"measurement": "Emax", "setting": "LPAR1 [3]", "result": 78, "unit": "%"}]}
{"smiles": "COc1cc(C(=O)N(CCCc2ccccc2F)CCSCC(=O)O)cc(OC)c1C", "note": "[Example 116, [(2-{(3,5-dimethoxy-4-methylbenzoyl)[3-(2-fluorophenyl)propyl]amino}ethyl)sulfanyl]acetic Acid]", "values": [{"measurement": "pIC50", "setting": "LPAR1 [2]", "result": 6.46}, {"measurement": "Emax", "setting": "LPAR1 [2]", "result": 81, "unit": "%"}, {"measurement": "pIC50", "setting": "LPAR1 [3]", "result": 7.70}, {"measurement": "Emax", "setting": "LPAR1 [3]", "result": 88, "unit": "%"}]}
